± gives the standard deviation of the averaged measurements.
Tested on: HEK293 NF-kB-luciferase reporter cells
Experiment: NF-kB luciferase reporter activity, robust Z-score vs plate median (robust Z-score (log luminescence)); higher = stronger NF-kB reporter activation
Conditions: TNF treatment time 8.5 h, transfection time 72 h
Protocol: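 Primary screen of an Ambion Pre-miR miRNA mimic library (miRBase v8.0, 1.6 pmol/well, 384-well, duplicate) reverse-transfected into HEK293 cells stably expressing a 5x NF-kB firefly luciferase reporter. After 72 h the cells were treated with vehicle or TNF (40 ng/mL) for 8.5 h and luminescence was read (BriteLite). Raw luminescence was log-transformed and converted to a robust Z-score per plate: (x - plate median)/plate MAD. Sequence given is the mature miRNA strand of the double-stranded mimic.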

| Sequence | NF-kB luciferase reporter activity (TNF 0 ng/mL) | NF-kB luciferase reporter activity (TNF 40 ng/mL) |
| --- | --- | --- |
| UGAUUGGUACGUCUGUGGGUAGA | -0.152 ± 0.091 | -0.9703 ± 0.0044 |
| UGAUUGUAGCCUUUUGGAGUAGA | -1.51 ± 0.46 | -0.927 ± 0.034 |
| UGCUGACUCCUAGUCCAGGGC | -1.7 ± 0.2 | -3.27 ± 0.18 |
| UGCUUCCUUUCAGAGGGU | 1.34 ± 0.039 | 0.941 ± 0.075 |
| UGGAGAGAAAGGCAGUUC | 0.465 ± 0.4 | 0.268 ± 0.031 |
| UGGUAGACUAUGGAACGUA | 0.274 ± 0.8 | 0.0556 ± 0.21 |
| UGGUUGACCAUAGAACAUGCGC | -0.133 ± 0.5 | -2.27 ± 0.2 |
| UGGUUUACCGUCCCACAUACAU | -0.822 ± 0.38 | 0.367 ± 0.064 |
| UGUCUGCCCGCAUGCCUGCCUCU | 1.07 ± 0.88 | 0.822 ± 0.046 |
| UGUCUUGCAGGCCGUCAUGCA | 1.79 ± 0.31 | -0.465 ± 0.12 |
| UGUGACAGAUUGAUAACUGAAA | -0.287 ± 0.28 | -2.016 ± 0.016 |
| UGUUUGCAGAGGAAACUGAGAC | 1.44 ± 0.076 | -1.26 ± 0.051 |
| UUAAGACUUGCAGUGAUGUUUAA | -0.92 ± 0.38 | 0.155 ± 0.07 |
| UUAUAAUACAACCUGAUAAGUG | -0.295 ± 1.1 | -0.534 ± 0.029 |
| UUAUCAGAAUCUCCAGGGGUAC | -0.469 ± 0.36 | -0.796 ± 0.17 |
| UUCAAGUAAUUCAGGAUAGGUU | 0.218 ± 0.18 | 0.0275 ± 0.0019 |
| UUCACAGGGAGGUGUCAUUUAU | 0.436 ± 0.13 | 0.0761 ± 0.082 |
| UUCACAGUGGCUAAGUUCCGC | 0.203 ± 0.55 | 0.955 ± 0.096 |
| UUCCCUUUGUCAUCCUUCGCCU | 0.84 ± 0.23 | 0.327 ± 0.09 |
| UUCUCCAAAAGAAAGCACUUUCUG | -0.171 ± 0.24 | -1.816 ± 0.017 |
| UUCUCCAAAAGGGAGCACUUUC | 1.07 ± 0.25 | -1.42 ± 0.11 |
| UUGUACAUGGUAGGCUUUCAUU | 0.596 ± 0.28 | 0.433 ± 0.025 |
| UUUAACAUGGGGGUACCUGCUG | -0.207 ± 0.29 | 0.504 ± 0.055 |
| UUUCAAGCCAGGGGGCGUUUUUC | 0.765 ± 0.45 | 0.885 ± 0.064 |
| UUUGUUCGUUCGGCUCGCGUGA | -0.464 ± 1 | -3.19 ± 0.074 |
| UUUUGCACCUUUUGGAGUGAA | 1.1 ± 0.92 | -0.163 ± 0.01 |

Source: the supplement of paper PMC3621838
